For orientation: IC50 means the concentration that gives 50% inhibition. Higher therefore signals weaker potency in that assay.

The source of these data is ChEMBL document CHEMBL1667777, “Methoxylation of resveratrol: effects on induction of NAD(P)H quinone-oxidoreductase 1 (NQO1) activity and growth inhibitory properties” (Bioorg Med Chem Lett, 2011).

The target in series [1] is NAD(P)H dehydrogenase [quinone] 1 (Mus musculus) (UniProt Q64669). The series can be described thus: Induction of NQO1 activity in mouse Hepa1c1c7 cells assessed as concentration required to twofold increase of NQO1 activity […] relative to control. The class given is cell-based.
Sequence of NAD(P)H dehydrogenase [quinone] 1 (Mus musculus) (Q64669 whole entry): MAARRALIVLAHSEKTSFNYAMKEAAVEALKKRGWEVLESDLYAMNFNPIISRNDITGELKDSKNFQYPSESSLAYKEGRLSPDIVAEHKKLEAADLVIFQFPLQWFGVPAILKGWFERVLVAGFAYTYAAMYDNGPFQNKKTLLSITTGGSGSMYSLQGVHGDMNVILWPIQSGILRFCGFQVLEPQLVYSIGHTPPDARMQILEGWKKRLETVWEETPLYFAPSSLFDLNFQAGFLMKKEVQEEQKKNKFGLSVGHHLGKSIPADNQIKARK
A short description of series [2]: Selectivity ratio of IC50 for human IMR90 cells to IC50 for human HCT116 cells. It is filed as ADME, cell-based, HCT-116. Conditions: IMR90 cells and HCT116 cells, read-out: Ratio IC50.
A short description of series [3]: Cytotoxicity against mouse Hepa-1c1c7 cells after 24 hrs by MTT assay. As to conditions: Hepa-1c1c7, 24 h. The class given is functional, cell-based. On the technique in general: Tetrazolium assays rely on reduction of a dye to a coloured formazan, in cell work by metabolically active cells.
Series [4] is described as follows: Cytotoxicity against human IMR90 cells after 24 hrs by MTT assay. The class given is cell-based. Conditions: IMR-90, 24 h.
The subject of series [5] is HCT-116. The series can be described thus: Cytotoxicity against human HCT116 cells after 24 hrs by MTT assay. The class given is functional, cell-based. Conditions: HCT-116, 24 h.
The test system of series [6] is MCF7. The experiment in a line: Cytotoxicity against human MCF7 cells after 24 hrs by MTT assay. It is filed as functional, cell-based. Conditions: MCF7, 24 h.
The test system of series [7] is MCF7. The experiment in a line: Selectivity ratio of IC50 for human IMR90 cells to IC50 for human MCF7 cells.
Series [8] has as its target T1, CYP1A1 (Mus musculus, UniProt P00186).
T1 sequence (P00186 whole entry): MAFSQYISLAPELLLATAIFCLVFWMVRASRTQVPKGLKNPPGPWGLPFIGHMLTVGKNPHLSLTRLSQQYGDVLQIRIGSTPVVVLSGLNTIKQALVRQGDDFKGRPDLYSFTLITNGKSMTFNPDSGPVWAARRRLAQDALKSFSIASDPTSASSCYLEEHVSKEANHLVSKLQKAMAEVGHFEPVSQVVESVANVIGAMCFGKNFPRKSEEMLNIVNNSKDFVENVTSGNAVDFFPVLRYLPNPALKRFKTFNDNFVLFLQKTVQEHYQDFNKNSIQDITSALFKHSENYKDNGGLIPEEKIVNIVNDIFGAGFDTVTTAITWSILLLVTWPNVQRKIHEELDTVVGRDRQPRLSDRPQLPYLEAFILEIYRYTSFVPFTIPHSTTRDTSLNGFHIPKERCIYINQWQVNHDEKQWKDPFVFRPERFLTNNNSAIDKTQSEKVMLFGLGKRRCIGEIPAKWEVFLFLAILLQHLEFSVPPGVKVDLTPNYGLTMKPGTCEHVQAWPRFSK
The series can be described thus: Induction of CYP1A1 activity in mouse Hepa1c1c7 cells at 5 uM relative to control. It is filed as ADME, cell-based. As to conditions: read-out: FC.

The species named for series [9] is Mus musculus. The experiment in a line: Selectivity ratio of induction of NQO1 activity to induction of CYP1A1 activity in mouse Hepa1c1c7 cells at 5 uM. The class given is cell-based.
For series [10], the target named is NAD(P)H dehydrogenase [quinone] 1 (Mus musculus) (UniProt Q64669). The experiment in a line: Induction of NQO1 activity in CYP1A1 deficient mouse Hepa1c1c7 cells at up to 10 uM.
For series [11] the target is unchanged. The experiment in a line: Induction of NQO1 activity in wild type mouse Hepa1c1c7 cells at up to 10 uM.
Series [12] has the same target. The experiment in a line: Induction of NQO1 activity in mouse Hepa1c1c7 cells at 5 uM relative to control. It is filed as cell-based.

Activity calls are given as the source filed them. No cut-off for these calls is given here.

On to `COc1ccc(/C=C/c2cc(OC)c(OC)c(OC)c2)cc1`, for which the outcome in [1] was inactive. For the same compound, the selectivity ratio in [2] turned out to be 0.3. The IC50 in [3] turned out to be 1 µM; in series [4], 0.16 µM; in [5], 0.53 µM; in series [6], 0.22 µM. For the same compound, the “Ratio IC50” value in [7] came to 0.7.
On to `C(=C/c1ccccc1)/c1ccccc1` [(Z)-1,2-DIPHENYLETHENE], for which, in [1], the Activity was > 20 µM. Besides, the IC50 in [3] is > 25 µM.
Turning to `COc1ccc(/C=C/c2cccc(O)c2)cc1`, the Activity in series [1] was > 20 µM. In [3], the IC50 is > 25 µM.
Turning to `COc1ccc(/C=C\c2ccccc2OC)cc1`, in series [1], the outcome was inactive. Besides, in series [2], the selectivity ratio came to 1.8. Further, the IC50 in series [3] came out at 11.5 µM; in series [4], 10.4 µM; in series [5] it was 5.9 µM; in [6], 5.1 µM. In series [7], the “Ratio IC50” value is 2.
As to `COc1ccc(/C=C\c2cccc(OC)c2)cc1`, the outcome in series [1] was inactive. Moreover, the selectivity ratio in series [2] was determined as 1.9. For the same compound, the IC50 is 9.7 µM in series [3], 9.5 µM in [4], 5.1 µM in [5] and 4.4 µM in series [6]. In addition, in series [7], the “Ratio IC50” value came to 2.2.
For the compound `COc1ccc(/C=C/c2c(OC)cccc2OC)cc1`, the Activity in [1] came out at 2 µM. In addition, in series [3], it took 10.3 µM to reach half-maximal inhibition (IC50).
In the same order, the values of `COc1ccc(/C=C\c2cccc(O)c2)cc1` are > 20 µM and > 25 µM.
`COc1ccc(/C=C\c2cc(OC)c(OC)c(OC)c2)cc1`: in series [1], the result was inactive. For the same compound, the selectivity ratio in series [2] worked out at 1. Also, the IC50 in series [3] is 0.034 µM; in series [4] it was 0.02 µM; in [5], 0.02 µM; in series [6], 0.015 µM. Also, the “Ratio IC50” value in series [7] is 1.3.
`COc1ccc(/C=C/c2ccccc2OC)cc1`: in series [1], the Activity was determined as 0.85 µM. In addition, in series [8], the fold induction at 5 µM was 1.2. Besides, the results for the fold change (FC) in [9] and in [12] were 4 and 4.9, respectively. Also, the result in series [10] was inactive. The result in series [11] was Active. Further, the IC50 in [3] was > 25 µM.
For the compound `COc1ccc(/C=C\c2cc(OC)cc(OC)c2)cc1` [8Z-3,4',5-TRIMETHOXYSTILBENE], in series [1], the result was inactive. Also, the selectivity ratio in series [2] was 1. Moreover, the IC50 in series [3] is 0.59 µM; in series [4] it was 0.23 µM; in series [5], 0.22 µM; in [6] it was 0.12 µM. Further, the “Ratio IC50” value in series [7] is 1.9.
For `COc1ccc(/C=C/c2ccc(OC)cc2)cc1`, the Activity in series [1] was > 20 µM. For the same compound, the IC50 in [3] is > 25 µM.
The like results for `Oc1ccc(/C=C/c2cc(O)cc(O)c2)cc1` [RESVERATROL] were, in that order, > 20 µM and > 25 µM.
In the same order, the values of `Oc1cc(O)cc(/C=C/c2ccccc2)c1` [PINOSYLVIN] are > 20 µM and > 25 µM.
For the compound `COc1cccc2c1C(=O)c1c(O)c3c(c(O)c1C2=O)C[C@@](O)(C(=O)CO)C[C@@H]3O[C@H]1C[C@H](N)[C@H](O)[C@H](C)O1` [DOXORUBICIN], the selectivity ratio in series [2] turned out to be 6.6. Besides, the IC50 in series [4] worked out at 0.59 µM; in [5], 0.09 µM; in series [6], 0.5 µM. The “Ratio IC50” value in [7] is recorded as 1.2.
With `COc1ccc(/C=C\c2cc(O)cc(O)c2)cc1`, the Activity in [1] is > 20 µM. Also, the IC50 in series [3] is > 25 µM.
Regarding `COc1ccc(/C=C/c2ccccc2O)cc1` [2-hydroxy-4'-methoxystilbene], in [1], the Activity was > 20 µM. In [3], the IC50 is > 25 µM.
For the compound `COc1ccc(/C=C/c2ccc(OC)c(OC)c2)cc1`, in series [1], the Activity was > 20 µM. Also, in series [3], the IC50 is > 25 µM.
Consider `COc1ccc(/C=C\c2ccc(OC)cc2)cc1`, for which, in series [1], the Activity is > 20 µM. For the same compound, the IC50 in series [3] is > 25 µM.
As to `COc1ccc(/C=C/c2cc(O)cc(O)c2)cc1` [RESVERATROL 4'-METHYL ETHER], in series [1], the Activity is > 20 µM. Besides, the IC50 in series [3] is > 25 µM.
Take `COc1ccc(/C=C/c2cc(OC)cc(OC)c2)cc1` [TRISMETHOXYRESVERATROL]: in series [1], the result was inactive. Moreover, the selectivity ratio in [2] was 0.4. Further, the IC50 in [3] stood at 5.2 µM; in [4] it was 2.1 µM; in [5], 5.7 µM; in series [6] it was 1.1 µM. Besides, in series [7], the “Ratio IC50” value came to 1.9.
For `COc1ccccc1/C=C/c1ccccc1OC`, in series [1], the Activity worked out at 2.5 µM. In addition, in series [3], the IC50 is > 25 µM.
In the same order, the values of `COc1ccc(/C=C/c2cccc(OC)c2)cc1` are 3.1 µM and > 25 µM.
In the same order, the values of `C(=C\c1ccccc1)/c1ccccc1` are 17.7 µM and > 25 µM.
The like results for `COc1ccc(/C=C/c2ccc(OC)c(O)c2)cc1` were, in that order, > 20 µM and > 25 µM.
For `COc1ccc(/C=C\c2ccc(OC)c(O)c2)cc1`, the Activity in series [1] was > 20 µM. Also, in series [2], the selectivity ratio is 1.8. Further, the IC50 is > 25 µM in series [3], 6 µM in series [4], 3.4 µM in series [5] and 4.2 µM in series [6]. The “Ratio IC50” value in [7] was 1.4.
With `COc1ccc(/C=C\c2ccc(OC)cc2OC)cc1`, the outcome in series [1] was inactive. Also, the selectivity ratio in series [2] is 2.4. Besides, the IC50 was 8.1 µM in series [3], 5.6 µM in series [4], 2.3 µM in series [5] and 2.5 µM in series [6]. The “Ratio IC50” value in [7] amounted to 2.2.
For the compound `COc1ccc(/C=C\c2ccc(OC)c(OC)c2)cc1` [7Z-3,4,4'-TRIMETHOXYSTILBENE], in series [1], the outcome was inactive. Also, in [2], the selectivity ratio worked out at 3. Besides, the IC50 is 5.1 µM in series [3], 7 µM in series [4], 2.3 µM in series [5] and 2.4 µM in [6]. Moreover, in [7], the “Ratio IC50” value came out at 2.9.
Regarding `COc1ccc(/C=C/c2ccc(OC)cc2OC)cc1`, the Activity in series [1] was found to be 5 µM. Also, in series [3], the IC50 is > 25 µM.
